This passage reports GI50 and TGI results from PubChem BioAssay (NCI).

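Compound exposure: 48 hours, 5 concentrations, 96-well plates. GI50: concentration for 50% inhibition of growth. TGI: concentration producing complete growth inhibition.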 A value given as a limit tells only on which side of the number the result lay.

Test systems include SF-295 CNS; K-562 leukemia; HOP-92 NSCLC; SNB-19 CNS; HT29 colon; HCT-116 colon; EKVX NSCLC; BT-549 breast; UACC-62 melanoma; SF-539 CNS.
What all share (assay): NCI anticancer screen, dose series, 48 h

Consider `CCCCNC(=O)Oc1ccc(/C(=C(/CC)Cc2ccccc2)c2ccc(OCCN3CCCCCC3)cc2)cc1`, for which the GI50 with SF-295 CNS was 18.3 µM; with K-562 leukemia, 16.7 µM; with HOP-92 NSCLC it was 19 µM; with SNB-19 CNS, 39.8 µM; in the test with HT29 colon, 18.1 µM; in the test with HCT-116 colon, 15.6 µM. Further, the GI50 in the test with EKVX NSCLC was 76.8 µM; in the test with BT-549 breast, 46.5 µM; in the test on UACC-62 melanoma, 19.6 µM; in the test on SF-539 CNS, 17 µM. Moreover, the TGI is 38.4 µM in the test with SF-295 CNS; 46.9 µM in the test on K-562 leukemia; 47.2 µM with HOP-92 NSCLC; greater than 100 µM in the test on SNB-19 CNS; 36.3 µM in the test with HT29 colon; 29 µM in the test on HCT-116 colon. In addition, the TGI with EKVX NSCLC was greater than 100 µM; in the test on BT-549 breast, greater than 100 µM; with UACC-62 melanoma, 38 µM; in the test on SF-539 CNS, 31.3 µM.
Turning to `C[C@]12CC[C@@H](OC(=O)N(CCCl)N=O)C[C@@H]1CC[C@@H]1[C@@H]2CC[C@]2(C)C(=O)CC[C@@H]12`, the GI50 with SF-295 CNS was 0.308 µM; with HOP-92 NSCLC, 6.79 µM; in the test with SNB-19 CNS, 0.526 µM; with HT29 colon, 3.26 µM; with HCT-116 colon, 7.25 µM; with EKVX NSCLC it was 6.5 µM. Further, the GI50 in the test with BT-549 breast is 14.2 µM; with UACC-62 melanoma it was 1.46 µM; in the test with SF-539 CNS, 0.33 µM. The TGI in the test with SF-295 CNS is greater than 51.1 µM; in the test on K-562 leukemia, greater than 100 µM; in the test with HOP-92 NSCLC it was 35.9 µM; in the test with SNB-19 CNS it was 26 µM; in the test with HT29 colon it was 15.9 µM; in the test on HCT-116 colon, 30.5 µM. Further, the TGI with EKVX NSCLC was greater than 43.7 µM; with BT-549 breast, 33.2 µM; with UACC-62 melanoma, 25.6 µM; in the test with SF-539 CNS, 13.4 µM.
Regarding `O=C(Nc1ccc(Br)cc1)Nc1nn(C(=O)Nc2ccc(Br)cc2)c2ccccc12`, the GI50 is 18 µM in the test with SF-295 CNS; 7.64 µM in the test on K-562 leukemia; 24.4 µM with HOP-92 NSCLC; 23.6 µM with SNB-19 CNS; greater than 100 µM with HT29 colon; 16.9 µM with HCT-116 colon. Besides, the GI50 in the test with EKVX NSCLC is 40.3 µM; in the test with BT-549 breast it was 34.5 µM; in the test with UACC-62 melanoma it was 36.5 µM; in the test with SF-539 CNS it was 29.3 µM. For the same compound, the TGI is 66.1 µM in the test with SF-295 CNS; greater than 35.6 µM in the test with K-562 leukemia; greater than 65.5 µM in the test with HOP-92 NSCLC; 81 µM in the test with SNB-19 CNS; greater than 100 µM with HT29 colon; greater than 100 µM in the test on HCT-116 colon. Moreover, the TGI in the test on EKVX NSCLC was greater than 100 µM; with BT-549 breast, greater than 93.7 µM; in the test with UACC-62 melanoma, greater than 100 µM; with SF-539 CNS it was greater than 100 µM.
As for `CC12CC=CCC1CCC1C2CCC2(C)C(c3ccc(=O)oc3)CCC12O` (centres undefined), the GI50 was 0.0462 µM in the test on SF-295 CNS; 0.0967 µM in the test on K-562 leukemia; 0.148 µM in the test on HOP-92 NSCLC; 0.295 µM in the test with SNB-19 CNS; 0.0633 µM with HT29 colon; 0.0349 µM with HCT-116 colon. Moreover, the GI50 in the test with EKVX NSCLC is 0.0602 µM; in the test on BT-549 breast it was 0.04 µM; with UACC-62 melanoma, 0.233 µM; with SF-539 CNS it was 0.055 µM. Moreover, the TGI in the test on SF-295 CNS was found to be 0.25 µM; in the test on K-562 leukemia, 2.27 µM; in the test on HOP-92 NSCLC, 0.756 µM; in the test on SNB-19 CNS, 1.19 µM; with HT29 colon, 0.768 µM; with HCT-116 colon, 0.143 µM. Moreover, the TGI stood at 0.212 µM with EKVX NSCLC, 0.209 µM in the test on BT-549 breast, 0.661 µM with UACC-62 melanoma and 0.184 µM in the test on SF-539 CNS.
Take `COc1ccc(NC(=O)n2nc(/C=C\c3ccc(O)c(OC)c3)cc2/C=C\c2ccc(O)c(OC)c2)cc1`: the GI50 was 6.25 µM with SF-295 CNS; 2.86 µM with K-562 leukemia; 7.77 µM in the test with HOP-92 NSCLC; 5.28 µM with SNB-19 CNS; 3.52 µM with HT29 colon; 3.22 µM in the test with HCT-116 colon. Moreover, the GI50 in the test with EKVX NSCLC was 6.62 µM; with BT-549 breast it was 2.49 µM; in the test with UACC-62 melanoma, 2.14 µM; with SF-539 CNS, 2.35 µM. Moreover, the TGI in the test on SF-295 CNS is 53.2 µM; in the test on K-562 leukemia it was 16.9 µM; in the test with HOP-92 NSCLC, greater than 100 µM; in the test on SNB-19 CNS, 86.7 µM; in the test on HT29 colon, 11 µM; in the test with HCT-116 colon it was 42.9 µM. The TGI in the test on EKVX NSCLC stood at 83.7 µM; in the test with BT-549 breast, 29.5 µM; in the test on UACC-62 melanoma, 6.91 µM; in the test on SF-539 CNS, 13.6 µM.
As for `Cc1nn(CNc2ccccc2C(F)(F)F)c(=S)n1/N=C/c1ccc(F)cc1`, the GI50 with SF-295 CNS was greater than 100 µM; in the test with K-562 leukemia it was 89.4 µM; in the test on HOP-92 NSCLC it was 34.8 µM; with SNB-19 CNS, 94 µM; with HT29 colon, 42.1 µM; in the test with HCT-116 colon, 91.2 µM. Besides, the GI50 in the test with EKVX NSCLC is 42 µM; in the test on BT-549 breast it was greater than 100 µM; with UACC-62 melanoma it was 35.4 µM; in the test with SF-539 CNS, greater than 100 µM. Besides, the TGI in the test with SF-295 CNS, in the test on K-562 leukemia, with HOP-92 NSCLC, with SNB-19 CNS, in the test on HT29 colon and in the test with HCT-116 colon was greater than 100 µM in each case. In addition, the TGI with EKVX NSCLC, in the test with BT-549 breast, with UACC-62 melanoma and with SF-539 CNS was greater than 100 µM each time.
For the compound `[N-]=[N+]=CC(=O)COC(=O)c1ccccc1`, the TGI in the test on SF-295 CNS, in the test on K-562 leukemia, with HOP-92 NSCLC, in the test on SNB-19 CNS, in the test with HT29 colon and with HCT-116 colon was greater than 100 µM throughout. In addition, the TGI in the test on EKVX NSCLC, with BT-549 breast, in the test with UACC-62 melanoma and in the test with SF-539 CNS was greater than 100 µM in each case.
Turning to `Nc1nc(N)nc(CC(=O)O)n1`, the TGI with SF-295 CNS, in the test on K-562 leukemia, in the test on HOP-92 NSCLC, in the test on SNB-19 CNS, with HT29 colon and in the test on HCT-116 colon was greater than 100 µM each time. For the same compound, the TGI with EKVX NSCLC, with BT-549 breast, in the test with UACC-62 melanoma and with SF-539 CNS was greater than 100 µM in each case.
With `C[C@]12CC[C@H]3[C@@H](CC[C@]4(O)C[C@@H](O)CC[C@]34CO)[C@@]1(O)CC[C@@H]2C1=CC(=O)OC1`, the TGI in the test on SF-295 CNS is 5.27 µM; with K-562 leukemia, greater than 100 µM; in the test on HOP-92 NSCLC it was 18.9 µM; in the test with SNB-19 CNS, 23.6 µM; in the test with HT29 colon, 7.81 µM; in the test with HCT-116 colon, 4.31 µM. The TGI in the test on EKVX NSCLC was 3.49 µM; with BT-549 breast, 3.68 µM; with UACC-62 melanoma it was 11.4 µM; in the test with SF-539 CNS it was 2.41 µM.
